Laboratory results: publication PMC8042605 (The Journal of General Physiology, 2021)
Values belong to the compound of their own block, whether it stands above or below them.

Key:
Experiment in all cases: whole-cell patch clamp in transfected CHOK1 cells
Type in all cases: cell-based
Nav1.4 [1] = target: Nav1.4 (Homo sapiens, UniProt P35499, F1586A)
Nav1.4 [2] = target: Nav1.4 (Homo sapiens, UniProt P35499, F432W/I1280W/I1583W/V787W)
Nav1.4 [3] = target: T1, Nav1.4 (Homo sapiens, UniProt P35499); conditions: CHO-K1, read-out: % block at 350 μM
T1 sequence (P35499 whole entry): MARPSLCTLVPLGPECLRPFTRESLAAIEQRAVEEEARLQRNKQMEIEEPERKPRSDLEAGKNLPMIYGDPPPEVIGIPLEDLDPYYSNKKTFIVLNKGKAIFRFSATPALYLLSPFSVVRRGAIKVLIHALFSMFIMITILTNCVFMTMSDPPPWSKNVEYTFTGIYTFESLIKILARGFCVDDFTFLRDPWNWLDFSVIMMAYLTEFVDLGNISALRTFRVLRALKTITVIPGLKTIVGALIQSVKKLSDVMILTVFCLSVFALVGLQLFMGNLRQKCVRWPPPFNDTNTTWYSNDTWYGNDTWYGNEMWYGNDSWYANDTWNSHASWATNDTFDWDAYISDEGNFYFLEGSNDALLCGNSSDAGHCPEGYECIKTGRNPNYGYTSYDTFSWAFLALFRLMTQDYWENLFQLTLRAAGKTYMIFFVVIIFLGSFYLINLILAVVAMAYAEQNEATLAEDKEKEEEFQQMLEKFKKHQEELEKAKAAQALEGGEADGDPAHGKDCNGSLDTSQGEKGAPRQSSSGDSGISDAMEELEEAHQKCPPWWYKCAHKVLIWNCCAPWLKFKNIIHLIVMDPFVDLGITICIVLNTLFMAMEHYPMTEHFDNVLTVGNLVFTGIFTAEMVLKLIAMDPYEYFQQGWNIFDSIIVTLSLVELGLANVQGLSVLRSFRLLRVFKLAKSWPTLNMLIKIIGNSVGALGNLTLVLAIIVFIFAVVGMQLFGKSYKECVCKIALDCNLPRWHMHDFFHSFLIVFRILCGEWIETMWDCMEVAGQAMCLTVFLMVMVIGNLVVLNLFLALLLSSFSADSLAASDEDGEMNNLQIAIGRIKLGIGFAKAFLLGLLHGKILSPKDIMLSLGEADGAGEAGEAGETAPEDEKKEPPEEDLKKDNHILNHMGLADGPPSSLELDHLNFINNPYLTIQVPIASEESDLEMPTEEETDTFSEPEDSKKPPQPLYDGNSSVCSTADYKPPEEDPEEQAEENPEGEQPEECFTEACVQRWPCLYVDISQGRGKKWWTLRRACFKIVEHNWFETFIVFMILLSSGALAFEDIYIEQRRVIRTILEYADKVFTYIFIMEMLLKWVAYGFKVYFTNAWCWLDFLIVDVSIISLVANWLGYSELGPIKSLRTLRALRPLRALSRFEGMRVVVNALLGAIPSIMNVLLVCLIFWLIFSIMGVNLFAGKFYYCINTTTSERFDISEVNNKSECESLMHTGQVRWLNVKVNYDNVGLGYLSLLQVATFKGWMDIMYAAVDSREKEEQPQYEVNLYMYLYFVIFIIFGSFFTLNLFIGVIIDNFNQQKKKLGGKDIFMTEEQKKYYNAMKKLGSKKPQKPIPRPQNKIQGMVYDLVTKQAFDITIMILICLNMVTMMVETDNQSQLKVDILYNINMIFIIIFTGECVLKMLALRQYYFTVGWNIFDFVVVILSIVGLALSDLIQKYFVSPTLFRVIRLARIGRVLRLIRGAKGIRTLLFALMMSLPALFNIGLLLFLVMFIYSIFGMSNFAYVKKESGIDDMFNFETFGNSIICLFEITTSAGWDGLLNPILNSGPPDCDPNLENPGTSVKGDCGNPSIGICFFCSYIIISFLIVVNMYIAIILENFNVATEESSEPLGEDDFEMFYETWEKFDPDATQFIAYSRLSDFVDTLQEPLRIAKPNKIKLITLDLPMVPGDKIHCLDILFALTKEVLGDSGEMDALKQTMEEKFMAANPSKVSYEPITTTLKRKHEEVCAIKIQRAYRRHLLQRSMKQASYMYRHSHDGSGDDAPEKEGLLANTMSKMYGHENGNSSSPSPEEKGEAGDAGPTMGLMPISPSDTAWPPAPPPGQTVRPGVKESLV
T1 sequence (Q07699 19-218 partner): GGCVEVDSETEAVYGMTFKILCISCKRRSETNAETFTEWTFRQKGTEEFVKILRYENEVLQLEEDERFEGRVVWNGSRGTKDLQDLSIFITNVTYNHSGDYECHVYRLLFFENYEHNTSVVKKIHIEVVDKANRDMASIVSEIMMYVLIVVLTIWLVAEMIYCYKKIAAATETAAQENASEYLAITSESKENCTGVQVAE

Nav1.4 [4] = target: T1, Nav1.4; conditions: CHO-K1, read-out: % block at 1.1 mM
[5] = CHO-K1, read-out: % block at 1.1 mM

Sequence of Nav1.4 (Homo sapiens, UniProt P35499, F432W/I1280W/I1583W/V787W) (P35499 whole entry F432W/V787W/I1280W/I1583W): as the sequence (P35499 whole entry) above, with F432W, V787W, I1280W, I1583W counted along it
Sequence of Nav1.4 (Homo sapiens, UniProt P35499, F432W/I1280W/I1583W/V787W) (Q07699 19-218 partner): as the sequence (Q07699 19-218 partner) above
Sequence of Nav1.4 (Homo sapiens, UniProt P35499, F1586A) (P35499 whole entry F1586A): as the sequence (P35499 whole entry) above, with F1586A counted along it
Sequence of Nav1.4 (Homo sapiens, UniProt P35499, F1586A) (Q07699 19-218 partner): as the sequence (Q07699 19-218 partner) above

SMILES: C=C(C)[C@@H]1CCC(C)=C[C@H]1c1c(O)cc(CCCCC)cc1O [Cannabidiol]
inhibition at 10 µM (Nav1.4 [1]; CHO-K1, read-out: % block at 10 μM): 25.3%

inhibition at 350 µM (Nav1.4 [2]; CHO-K1, read-out: % block at 350 μM): 76.4%
inhibition at 350 µM (Nav1.4 [3]): 64.6%
SMILES: O=C(NCC1CCCCN1)c1cc(OCC(F)(F)F)ccc1OCC(F)(F)F (stereo not drawn) [flecainide]

inhibition at 1100 µM (Nav1.4 [2]; [5]): 53.6%
inhibition at 1100 µM (Nav1.4 [4]): 60.6%
inhibition at 1100 µM (Nav1.4 [1]; [5]): 24.6%
SMILES: CCN(CC)CC(=O)Nc1c(C)cccc1C [lidocaine]
